Experimental data as given in patent publication US20230264009A1, “DISINFECTING CAP KIT FOR LUER ACCESS DEVICES” (SterileCare Inc., priority 2022, published 2023).
Structures can show the parent of a compound that is named as a salt.

Assays:
MRSA ON184 [1] = assay: Checkerboard titration, FICI; type: cell-based, Staphylococcus aureus
Description: (§1) A fourth composition and solution included tetrasodium EDTA with ethanol or chlorhexidine HCl. This fourth composition and solution were created using checkerboard titration methods using micro broth dilution in 96-well microtiter plates. The concentrations of antimicrobials used were based on previously determined MIC values. Briefly, 200 µL of two-fold dilutions of tetrasodium EDTA and ethanol or chlorhexidine HCl were prepared in MH or MH II broth with standardized cell suspension. […] Microtiter plates were incubated at 37° C. for 24 h, and the results were analyzed. Each test was performed in duplicate and included a growth control without adding any antimicrobials.

S. epidermidis SK9 [2] = assay: Checkerboard titration, FMCI; type: cell-based, Staphylococcus epidermidis
Description: (§2) An assay was made using a minimum inhibitory concentration (MIC) and minimum bactericidal concentration (MBC) and minimum fungicidal concentration (MFC) determination. The MIC was determined by the micro broth dilution method in 96-well plates. Serial two-fold dilutions of tetrasodium EDTA (from 2% to 0.015%), ethanol (from 50% to 0.1%) and chlorhexidine HCl (from 100 µg/mL to 0.025 µg/mL) were prepared in MH broth with a final volume of 90 µL per well. A 10 µL containing 1 × 10^5 bacterial cells or 2 × 10^3 fungal cells were added to each well. The inoculated plates were covered with a lid, sealed with Parafilm, and incubated for 24 h at 37° C. with slight rocking on a tilting platform shaker. After incubation, the optical density at 600 nm (OD 600 ) of the cultures in each well was measured using an xMark™ Microplate Absorbance Spectrophotometer (Bio-Rad). […] MBCs and MFCs were determined by transferring 100 µL from each well with no apparent growth onto appropriate agar plates, followed by incubation for 24 h at 37° C.
as §1

[3] = test system: Staphylococcus aureus ON89 biofilm; assay: FBEC index, checkerboard dilution on biofilms; type: cell-based; details: tetrasodium EDTA + ethanol; S. aureus ON89 biofilm
Description: (§3) In step (4), microtiter plates are incubated at 37° C. for 24 h. then (6), after incubation, the bacterial and fungal cells were dislodged from the pegs into the recovery medium described above.
(§4) Three 10-µL aliquots, for a total of 30 µL from each well of recovery medium, were spotted on MH agar plates and incubated for 24 h at 37° C. […] The FBEC determination is a modification of the FICI.

[4] = test system: Escherichia coli SK2 biofilm; assay: FBEC index, checkerboard dilution on biofilms; type: cell-based; details: tetrasodium EDTA + ethanol; E. coli SK2 biofilm
Description: as §3, §4

C. albicans ON47 biofilm = assay: FBEC index, checkerboard dilution on biofilms; type: cell-based, Candida albicans; details: tetrasodium EDTA + ethanol
Description: as §3, §4

C. albicans ON47 [5] = assay: Checkerboard titration, FICI; type: cell-based, Candida albicans
Description: as §1

[6] = test system: Staphylococcus epidermidis SK9 biofilm; assay: FBEC index, checkerboard dilution on biofilms; type: cell-based; details: tetrasodium EDTA + ethanol; S. epidermidis SK9 biofilm
Description: as §3, §4

MRSA ON184 [7] = assay: Checkerboard titration, FMCI; type: cell-based, Staphylococcus aureus
Description: as §2, §1

[8] = test system: Stenotrophomonas maltophilia ON17; assay: Checkerboard titration, FICI; type: cell-based; details: S. maltophilia ON17
Description: as §1

Candida albicans SK4b [9] = assay: Checkerboard titration, FICI; type: cell-based; details: C. albicans SK4b
Description: as §1

[10] = test system: Staphylococcus epidermidis ON170; assay: Checkerboard titration, FICI; type: cell-based; details: S. epidermidis ON170
Description: as §1

[11] = test system: Staphylococcus aureus ON89; assay: Checkerboard titration, FICI; type: cell-based; details: S. aureus ON89
Description: as §1

Proteus mirabilis ON153 [12] = assay: Checkerboard titration, FICI; type: cell-based; details: P. mirabilis ON153
Description: as §1

MRSA ON184 biofilm = assay: FBEC index, checkerboard dilution on biofilms; type: cell-based, Staphylococcus aureus; details: tetrasodium EDTA + ethanol
Description: as §3, §4

S. epidermidis SK9 [13] = assay: Checkerboard titration, FICI; type: cell-based, Staphylococcus epidermidis
Description: as §1

[14] = test system: 48-h old biofilms of test organisms; assay: Rapid biofilm eradication, 2 h exposure; type: cell-based; details: alone at the MBEC
Description: Determining rapid biofilm eradication by tetrasodium EDTA, ethanol, and chlorhexidine HCl alone and in combination was performed. After biofilm formation, control pegs (n = 6) were removed and analyzed to determine the starting biofilm cell numbers via the drop dilution method. The 48-h old biofilms on the pegs were exposed to different concentrations of test antimicrobials, dissolved in an appropriate growth medium, for two h to evaluate their efficacy alone and in combination. Antimicrobial solutions tested against each organism included each agent alone at the MBEC, double combinations at the FBEC, and triple combinations ranging from 5 to 20% ethanol, 2.5-5 µg/mL chlorhexidine HCl and 1- 3% tetrasodium EDTA. Following treatment, pegs were washed twice with sterile PBS, and the biofilm cells were dislodged into recovery medium and enumerated as described above.
The method for rapid biofilm eradication ability of test antimicrobials alone and in combination against 48-h-old biofilms within two h exposure time included (1) choosing different concentrations of test antimicrobials to assess their potency in eradicating preformed biofilms of study organisms within two h. Then (2) the quantitative recovery from biofilms following exposure to the antimicrobial solutions for bacterial strains (FIGS. 6A-6C) and fungal strains (FIG. 7) was evaluated.

[15] = test system: Candida albicans SK4b biofilm; assay: FBEC index, checkerboard dilution on biofilms; type: cell-based; details: tetrasodium EDTA + ethanol; C. albicans SK4b biofilm
Description: as §3, §4

Serratia marcescens SK2 [16] = assay: Checkerboard titration, FMCI; type: cell-based; details: S. marcescens SK2
Description: as §2, §1

[17] = test system: Stenotrophomonas maltophilia ON17; assay: Checkerboard titration, FMCI; type: cell-based; details: S. maltophilia ON17
Description: as §2, §1

Candida albicans SK4b [18] = assay: Checkerboard titration, FMCI; type: cell-based; details: C. albicans SK4b
Description: as §2, §1

[19] = test system: Staphylococcus epidermidis ON170; assay: Checkerboard titration, FMCI; type: cell-based; details: S. epidermidis ON170
Description: as §2, §1

[20] = test system: Staphylococcus aureus ON89; assay: Checkerboard titration, FMCI; type: cell-based; details: S. aureus ON89
Description: as §2, §1

Proteus mirabilis ON153 [21] = assay: Checkerboard titration, FMCI; type: cell-based; details: P. mirabilis ON153
Description: as §2, §1

[22] = test system: 48-h-old biofilms of bacterial and fungal strains; assay: MBEC Assay, 24 h exposure (summary); type: cell-based; details: following 24 h of treatment
Description: A biofilm cultivation cell composition was provided. This fifth composition was created using an MBEC Assay® biofilm inoculator, consisting of a polystyrene lid with 96 downward-protruding pegs and a corresponding base used to grow biofilms. A standardized inoculum was diluted in an appropriate biofilm growth medium to achieve a viable cell count of 1.5 × 10^6 CFU/mL of bacterial cells or […] CFU/mL of fungal cells. Then, 150 µL of this inoculum was transferred into each appropriate well, and the peg lids were inserted into the microtiter plates. The plates were sealed with Parafilm and were incubated at optimum temperature for 48 h with slight rocking for bacteria and shaking at 200 rpm for fungal strains. After incubation, the peg lid was removed from the base and rinsed twice with sterile phosphate-buffered saline (PBS) for 2 min to remove loosely attached non-sessile cells. Before the antimicrobial challenge, the pegs in column 1 (n = 8) were considered the biofilm growth control; these pegs were removed from the lids, placed into 200 µL of recovery medium, and analyzed for starting biofilm cell numbers as described below. […] After the antimicrobial challenge, the pegs were rinsed twice with sterile PBS for 2 min and placed into a new 96-well plate containing 200 µL of recovery medium. The recovery plates were sealed with Parafilm, and biofilm cells were dislodged from the pegs by sonication for 30 min with a Branson 3510 bath sonicator. The biofilm cells in the recovery medium were serially diluted, and a drop dilution assay was performed to enumerate the viable cells. MBEC values were determined as the minimum concentration of antimicrobials that yielded a viable cell count at or lower than the 125 CFU/mL detection limit.

C. albicans ON47 [23] = assay: Checkerboard titration, FMCI; type: cell-based, Candida albicans
Description: as §2, §1

Serratia marcescens SK2 [24] = assay: Checkerboard titration, FICI; type: cell-based; details: tetrasodium EDTA + chlorhexidine HCl; S. marcescens SK2
Description: as §1

[25] = test system: Pseudomonas aeruginosa SK1; assay: Checkerboard titration, FICI; type: cell-based; details: tetrasodium EDTA + chlorhexidine HCl; P. aeruginosa SK1
Description: as §1

Escherichia coli ON29 [26] = assay: Checkerboard titration, FICI; type: cell-based; details: tetrasodium EDTA + chlorhexidine HCl; E. coli ON29
Description: as §1

E. coli SK2 [27] = assay: Checkerboard titration, FICI; type: cell-based, Escherichia coli; details: tetrasodium EDTA + chlorhexidine HCl
Description: as §1

E. coli SK2 [28] = assay: Checkerboard titration, FMCI; type: cell-based, Escherichia coli; details: tetrasodium EDTA + chlorhexidine HCl
Description: as §2, §1

[29] = test system: Pseudomonas aeruginosa SK1; assay: Checkerboard titration, FMCI; type: cell-based; details: tetrasodium EDTA + chlorhexidine HCl; P. aeruginosa SK1
Description: as §2, §1

Escherichia coli ON29 [30] = assay: Checkerboard titration, FMCI; type: cell-based; details: tetrasodium EDTA + chlorhexidine HCl; E. coli ON29
Description: as §2, §1

[31] = tetrasodium EDTA + chlorhexidine HCl

CCO [Ethanol, ethanol]
3.125 % w/v: Concentration in combination giving FMCI (S. epidermidis SK9 [2]; tetrasodium EDTA + ethanol) | Concentration in combination giving FMCI (MRSA ON184 [7]; tetrasodium EDTA + ethanol) | Concentration in combination giving FMCI (Candida albicans SK4b [18]; tetrasodium EDTA + ethanol) | Concentration in combination giving FMCI ([20]; tetrasodium EDTA + ethanol) | Concentration in combination giving FMCI (C. albicans ON47 [23]; tetrasodium EDTA + ethanol)
0.4 % w/v: Concentration in combination giving FICI (MRSA ON184 [1]; tetrasodium EDTA + ethanol) | Concentration in combination giving FICI (C. albicans ON47 [5]; tetrasodium EDTA + ethanol) | Concentration in combination giving FICI ([8]; tetrasodium EDTA + ethanol) | Concentration in combination giving FICI ([10]; tetrasodium EDTA + ethanol) | Concentration in combination giving FICI ([11]; tetrasodium EDTA + ethanol) | Concentration in combination giving FICI (S. epidermidis SK9 [13]; tetrasodium EDTA + ethanol)
1.6 % w/v: FBEC (concentration in combination) [4] | FBEC (concentration in combination) (C. albicans ON47 biofilm) | FBEC (concentration in combination) [6] | Concentration in combination giving FICI (Candida albicans SK4b [9]; tetrasodium EDTA + ethanol) | Concentration in combination giving FICI (Proteus mirabilis ON153 [12]; tetrasodium EDTA + ethanol) | FBEC (concentration in combination) (MRSA ON184 biofilm) | FBEC (concentration in combination) [15] | Concentration in combination giving FMCI ([17]; tetrasodium EDTA + ethanol) | Concentration in combination giving FMCI ([19]; tetrasodium EDTA + ethanol)
5%: Concentration alone able to eradicate all established biofilms [22]
6.25 % w/v: Concentration in combination giving FMCI (Serratia marcescens SK2 [16]; tetrasodium EDTA + ethanol) | Concentration in combination giving FMCI (Proteus mirabilis ON153 [21]; tetrasodium EDTA + ethanol)
0.8 % w/v: FBEC (concentration in combination) [3]
failed to eradicate: Eradication of preformed biofilms [14]

[H]/N=C(\N/C(=N/[H])NCCCCCCNC(=N)NC(=N)Nc1ccc(Cl)cc1)Nc1ccc(Cl)cc1 [Chlorhexidine HCl, chlorhexidine HCl]
1.5 µg/mL: Concentration in combination giving FICI (Serratia marcescens SK2 [24])
0.1 µg/mL: Concentration in combination giving FICI [11, 31] | Concentration in combination giving FICI (E. coli SK2 [27])
1.6 µg/mL: Concentration in combination giving FMCI (Serratia marcescens SK2 [16]; [31]) | Concentration in combination giving FMCI [29] | Concentration in combination giving FMCI (Proteus mirabilis ON153 [21]; [31]) | Concentration in combination giving FMCI (C. albicans ON47 [23]; [31])
failed to eradicate: Eradication of preformed biofilms [14]
100 µg/mL: Concentration alone able to eradicate all established biofilms [22]
0.2 µg/mL: Concentration in combination giving FICI (MRSA ON184 [1]; [31]) | Concentration in combination giving FICI [8, 31] | Concentration in combination giving FICI (Escherichia coli ON29 [26]) | Concentration in combination giving FMCI (E. coli SK2 [28]) | Concentration in combination giving FMCI (Escherichia coli ON29 [30]) | Concentration in combination giving FMCI [20, 31]
0.025 µg/mL: Concentration in combination giving FICI (S. epidermidis SK9 [13]; [31])
0.4 µg/mL: Concentration in combination giving FMCI (S. epidermidis SK9 [2]; [31]) | Concentration in combination giving FMCI (MRSA ON184 [7]; [31]) | Concentration in combination giving FMCI [17, 31] | Concentration in combination giving FMCI [19, 31]
0.8 µg/mL: Concentration in combination giving FICI (C. albicans ON47 [5]; [31]) | Concentration in combination giving FICI [25] | Concentration in combination giving FICI (Candida albicans SK4b [9]; [31]) | Concentration in combination giving FICI (Proteus mirabilis ON153 [12]; [31]) | Concentration in combination giving FMCI (Candida albicans SK4b [18]; [31])
0.05 µg/mL: Concentration in combination giving FICI [10, 31]
